Data: patent US10780074B2, “Compounds and uses thereof” (Sunovion Pharmaceuticals Inc., priority 2017, dated 2020)
Counter-ions that a name gives are not always drawn.

Tested on: behaviors of compound-treated mice
Assay: Neuropharmacological Assay (SmartCube)
Type: in vivo
Settings: Mus musculus, ip, 0.25 h, dose having 50% or more total activity in SmartCube, i.p., read-out: MED (minimal effective dose)
Method in brief: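 Behavioral signatures were captured automatically by video, and each drug class received a probability for the best of three i.p. doses given 15 min pre-test (vehicle: Pharmasolve/PEG/propylene glycol). Potency is given as MED, the lowest mpk dose (typically 0.3–30) reaching 50% or more total activity.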

Structure (SMILES)	minimal effective dose [mg/kg]
CNC[C@H]1OCCCc2c(-c3ccccn3)cccc21 (single isomer, unassigned) [Compound 157, hydrochloride salt]	10 to 30
CNC[C@@H]1OCCCc2c(-c3ccncn3)cccc21 (single isomer, unassigned) [Compound 164, hydrochloride salt]	10 to 30
CNC[C@H]1OCCCc2c(-c3ccncn3)cccc21 (single isomer, unassigned) [Compound 165, hydrochloride salt]	10 to 30
NC[C@@H]1OCCCc2c(-c3ccncn3)cccc21 (single isomer, unassigned) [Compound 166]	10 to 30
NC[C@H]1OCCCc2c(-c3ccncn3)cccc21 (single isomer, unassigned) [Compound 167]	10 to 30
CNC[C@@H]1OCCCc2c(-c3cncs3)cccc21 (single isomer, unassigned) [Compound 168, hydrochloride salt]	≤ 3
CNC[C@H]1OCCCc2c(-c3cncs3)cccc21 (single isomer, unassigned) [Compound 169, hydrochloride salt]	10 to 30
NC[C@@H]1OCCCc2c(-c3cncs3)cccc21 (single isomer, unassigned) [Compound 170, hydrochloride salt]	3 to 10
NC[C@H]1OCCCc2c(-c3cncs3)cccc21 (single isomer, unassigned) [Compound 171, hydrochloride salt]	10 to 30
c1cc(-c2ccncc2)c2c(c1)[C@H](CNC1CC1)OCC2 (single isomer, unassigned) [Compound 180, hydrochloride salt]	3 to 10
CNC[C@H]1OCCc2cccc(-c3cccnc3)c21 [Compound 2, (S)-N-Methyl-1-(8-(pyridin-3-yl)isochroman-1-yl)methanamine bis-hydrochloride]	> 30
CNC[C@H]1OCCc2ccc(-c3cccnc3)cc21 [Compound 4, (S)-N-methyl-1-(7-(pyridin-3-yl)isochroman-1-yl)methanamine dihydrochloride]	3 to 10

Same assay, conditions: Mus musculus, ip, 0.25 h, dose having 50% or more total activity in SmartCube, read-out: MED (minimal effective dose)

Structure (SMILES)	minimal effective dose [mg/kg]
c1cc(-c2ccncc2)c2c(c1)[C@@H](CNC1CC1)OCC2 (single isomer, unassigned) [Compound 181, hydrochloride salt]	≤ 3

Same assay, conditions: SmartCube, i.p. 15 min before test, most efficacious dose(s)

Structure (SMILES)	AD: ADHD (probability that activity matches class)	AG: analgesic (probability that activity matches class)	AX: anxiolytic (probability that activity matches class)	CE: cognitive enhancer (probability that activity matches class)	DP: anti-depressant (probability that activity matches class)	MS: mood stabilizer (probability that activity matches class)	PS: anti-psychotic (probability that activity matches class)	SD: sedative hypnotic (probability that activity matches class)	UN: uncharacterized CNS activity (probability that activity matches class)
c1cc(-c2ccncc2)c2c(c1)[C@@H](CNC1CC1)OCC2 (single isomer, unassigned) [Compound 181, hydrochloride salt]	++ (5% ≤ ++ <25%)	+ (LOQ ≤ + <5%)	+ (LOQ ≤ + <5%)	+ (LOQ ≤ + <5%)	++++ (50% ≤ ++++)	+ (LOQ ≤ + <5%)	+ (LOQ ≤ + <5%)	+ (LOQ ≤ + <5%)	++ (5% ≤ ++ <25%)

Same assay, conditions: i.p. 15 min before behavioral test, most efficacious dose(s) of 3 doses

Structure (SMILES)	AD: ADHD (probability that activity matches class)	AG: analgesic (probability that activity matches class)	AX: anxiolytic (probability that activity matches class)	CE: cognitive enhancer (probability that activity matches class)	DP: anti-depressant (probability that activity matches class)	MS: mood stabilizer (probability that activity matches class)	PS: anti-psychotic (probability that activity matches class)	SD: sedative hypnotic (probability that activity matches class)	UN: uncharacterized CNS activity (probability that activity matches class)
CNC[C@H]1OCCCc2c(-c3ccccn3)cccc21 (single isomer, unassigned) [Compound 157, hydrochloride salt]	+ (LOQ ≤ + <5%)	+ (LOQ ≤ + <5%)	++ (5% ≤ ++ <25%)	+ (LOQ ≤ + <5%)	+ (LOQ ≤ + <5%)	+ (LOQ ≤ + <5%)	+ (LOQ ≤ + <5%)	+ (LOQ ≤ + <5%)	+ (LOQ ≤ + <5%)
CNC[C@@H]1OCCCc2c(-c3ccncn3)cccc21 (single isomer, unassigned) [Compound 164, hydrochloride salt]	+ (LOQ ≤ + <5%)	+ (LOQ ≤ + <5%)	+ (LOQ ≤ + <5%)	+ (LOQ ≤ + <5%)	+ (LOQ ≤ + <5%)	+ (LOQ ≤ + <5%)	+ (LOQ ≤ + <5%)	+ (LOQ ≤ + <5%)	+ (LOQ ≤ + <5%)
CNC[C@H]1OCCCc2c(-c3ccncn3)cccc21 (single isomer, unassigned) [Compound 165, hydrochloride salt]	+ (LOQ ≤ + <5%)	+ (LOQ ≤ + <5%)	+ (LOQ ≤ + <5%)	+ (LOQ ≤ + <5%)	++ (5% ≤ ++ <25%)	+ (LOQ ≤ + <5%)	+ (LOQ ≤ + <5%)	+ (LOQ ≤ + <5%)	+ (LOQ ≤ + <5%)
NC[C@@H]1OCCCc2c(-c3ccncn3)cccc21 (single isomer, unassigned) [Compound 166]	+ (LOQ ≤ + <5%)	+ (LOQ ≤ + <5%)	+ (LOQ ≤ + <5%)	+ (LOQ ≤ + <5%)	+ (LOQ ≤ + <5%)	+ (LOQ ≤ + <5%)	+ (LOQ ≤ + <5%)	+ (LOQ ≤ + <5%)	+ (LOQ ≤ + <5%)
NC[C@H]1OCCCc2c(-c3ccncn3)cccc21 (single isomer, unassigned) [Compound 167]	+ (LOQ ≤ + <5%)	+ (LOQ ≤ + <5%)	+ (LOQ ≤ + <5%)	+ (LOQ ≤ + <5%)	+ (LOQ ≤ + <5%)	+ (LOQ ≤ + <5%)	+ (LOQ ≤ + <5%)	+ (LOQ ≤ + <5%)	+ (LOQ ≤ + <5%)
CNC[C@@H]1OCCCc2c(-c3cncs3)cccc21 (single isomer, unassigned) [Compound 168, hydrochloride salt]	++ (5% ≤ ++ <25%)	+ (LOQ ≤ + <5%)	++ (5% ≤ ++ <25%)	+ (LOQ ≤ + <5%)	++++ (50% ≤ ++++)	+ (LOQ ≤ + <5%)	+ (LOQ ≤ + <5%)	++ (5% ≤ ++ <25%)	++ (5% ≤ ++ <25%)
CNC[C@H]1OCCCc2c(-c3cncs3)cccc21 (single isomer, unassigned) [Compound 169, hydrochloride salt]	+ (LOQ ≤ + <5%)	+ (LOQ ≤ + <5%)	+ (LOQ ≤ + <5%)	+ (LOQ ≤ + <5%)	+ (LOQ ≤ + <5%)	+ (LOQ ≤ + <5%)	+ (LOQ ≤ + <5%)	+ (LOQ ≤ + <5%)	+ (LOQ ≤ + <5%)
NC[C@@H]1OCCCc2c(-c3cncs3)cccc21 (single isomer, unassigned) [Compound 170, hydrochloride salt]	+ (LOQ ≤ + <5%)	+ (LOQ ≤ + <5%)	++ (5% ≤ ++ <25%)	+ (LOQ ≤ + <5%)	++ (5% ≤ ++ <25%)	+ (LOQ ≤ + <5%)	+ (LOQ ≤ + <5%)	++ (5% ≤ ++ <25%)	+++ (25% ≤ +++ <50%)
NC[C@H]1OCCCc2c(-c3cncs3)cccc21 (single isomer, unassigned) [Compound 171, hydrochloride salt]	+ (LOQ ≤ + <5%)	+ (LOQ ≤ + <5%)	+ (LOQ ≤ + <5%)	+ (LOQ ≤ + <5%)	+ (LOQ ≤ + <5%)	+ (LOQ ≤ + <5%)	+ (LOQ ≤ + <5%)	+ (LOQ ≤ + <5%)	+ (LOQ ≤ + <5%)
c1cc(-c2ccncc2)c2c(c1)[C@H](CNC1CC1)OCC2 (single isomer, unassigned) [Compound 180, hydrochloride salt]	+ (LOQ ≤ + <5%)	+ (LOQ ≤ + <5%)	++ (5% ≤ ++ <25%)	+ (LOQ ≤ + <5%)	++ (5% ≤ ++ <25%)	+ (LOQ ≤ + <5%)	+ (LOQ ≤ + <5%)	+ (LOQ ≤ + <5%)	++++ (50% ≤ ++++)
CNC[C@H]1OCCc2cccc(-c3cccnc3)c21 [Compound 2, (S)-N-Methyl-1-(8-(pyridin-3-yl)isochroman-1-yl)methanamine bis-hydrochloride]	+ (LOQ ≤ + <5%)	+ (LOQ ≤ + <5%)	+ (LOQ ≤ + <5%)	+ (LOQ ≤ + <5%)	+ (LOQ ≤ + <5%)	+ (LOQ ≤ + <5%)	+ (LOQ ≤ + <5%)	+ (LOQ ≤ + <5%)	+ (LOQ ≤ + <5%)
CNC[C@H]1OCCc2ccc(-c3cccnc3)cc21 [Compound 4, (S)-N-methyl-1-(7-(pyridin-3-yl)isochroman-1-yl)methanamine dihydrochloride]	+ (LOQ ≤ + <5%)	+ (LOQ ≤ + <5%)	++ (5% ≤ ++ <25%)	+ (LOQ ≤ + <5%)	++ (5% ≤ ++ <25%)	+ (LOQ ≤ + <5%)	+++ (25% ≤ +++ <50%)	+ (LOQ ≤ + <5%)	++ (5% ≤ ++ <25%)
